Reference: EP0086092A2, “Antifungal compositions” (priority 1982, dated 1983)

Columns and labels:
C. albicans = assay: topical treatment of C. albicans skin infections of mice; type: in vivo; conditions: female CF-1 mice, shaved back skin infected with clinical isolates; topical treatment for 5 days; aculeacin A at its MIC for each isolate; compared with aculeacin A itself, Lotrimin cream and control
Procedure: Clinical isolates of C. albicans were grown in Sabouarud dextrose agar and subcultured into mouse serum and incubated at 35 C. Female mice (CF-1, 4 to 6 weeks old) were shaved on the back (2cm ^2 area).
The shaved area was cleaned with 70%'alcohol and scrubbed with a wire brush. This area was then painted with the C. albicans in mouse serum as noted above (10^5-10^6 CFu/ml.) and after drying this area was covered with sterile gauze and the infection was allowed to develop over two days. After the development of the infection, the mice were treated with aculeacin A/oleic acid composition, aculeacin A and Lotrimin^R (Clotrimazole-Schering) for 5 days. The minimum inhibitory concentration (MIC) for aculeacin A for each clinical isolate of C. albicans was determined and that amount was employed in each experiment. Commercially available Lotrimin^R cream was utilized in each experiment. […] Note that bacterial contamination was ruled out by microscopic examination. • [formula] where 4 - the most severe infection - zone of inoculation highly erythrematous with culture mainly consisting of C. albicans. • 3 - severe infection with some healing • 2 - less severe infection • 1 - very little infection • 0 - no infection.

Candida albicans B 3153A = assay: disc diffusion, zone of inhibition on seeded agar plates; type: cell-based; conditions: Table IV-a, 16-18 h, 28-37°C
Procedure: (§1) The antifungal activity of aculeacin A and the compositions of aculeacin A and fatty acids was measured by disc diffusion. Potentiation of antifungal activity was examined by three different methods employing: (1) a single concentration of aculeacin A and a single concentration of known fatty acids; '(2) various concentrations of aculeacin A with a single concentration of individual fatty acids; and (3) various concentrations of fatty acids with a single concentration of aculeacin A. The antifungal activities of aculeacin A and the fatty acids were separately checked as controls.
(§2) The antifungal effects of compositions containing a single amount of aculeacin A while varying the amounts. of oleic acid as the sodium salt were determined by utilizing seeded plates of Candida albicans strains B 311, BC 759 and B 3153A and measuring the zone of inhibition after 16-18 hours at 28-37°C. This test was also performed with linoleic acid and linolenic acid.
(§3) The seeded plates of Candida albicans strains B 311, BC 759, and B 3153A were prepared by inoculating 50 ml of trypticase soy broth (BBL) with one ml of the preserved frozen culture and incubating the inoculum at 37°C for 7 hours on a rotary shaker. Two milliliters of this culture were used to inoculate one liter of Sabouarud dextrose agar (Difco) at 50°C and 15 milliliters of the resultant medium poured into 150 mm petri-dishes.

Candida albicans BC 759 = assay: as above; type: cell-based; conditions: Table IV-a, 16-18 h, 28-37°C
Procedure: as §1, §2, §3

Candida albicans B 311 = assay: as above; type: cell-based; conditions: 16-18 h; for Zone Size / Zone Size B 311: 28-37°C; for Zone Size Sabouarud Agar / Zone Size YNB agar: Table II, 37°C; for Zone Size YNB agar: lysine; for Zone Size B 311: Table IV-a
Procedure: The antifungal activity of aculeacin A and the compositions of aculeacin A and fatty acids was measured by disc diffusion.
The effects of a number of fatty acids on the antifungal activity of aculeacin A were determined by utilizing seeded plates of Candida albicans B 311 in yeast nitrogen base (YNB) agar (Difco) with glucose as the carbon source. A composition containing one unit by weight of aculeacin A and 5 units of fatty acid or the sodium salt thereof was spotted on the seeded plates and the size of the zone of inhibition after 16-18 hours incubation at 28-37 °C was measured.
Additional fatty acids were tested to determine , if they increased the intrinsic activity of aculeacin A against C. albicans B 311 utilizing seeded plates of YNB agar (Difco) with lysine as the carbon source and seeded plates of Sabouarud dextrose agar (Difco). Compositions containg one µg of aculeacin A and various amounts of the fatty acid was spotted on the seeded plates and the size of the zone of inhibition after 16-18 hours incubation at 37 °C was measured.
The antifungal effects of compositions containing a single amount of oleic acid as the sodium salt while varying the amounts of aculeacin A were determined by utilizing seeded plates of Candida albicans B 311 in Sabouarud dextrose agar and measuring the zone of inhibition after 16-18 hours incubation at 28-37°C.
as §2, §3

[1] = aculeacin A 0.40 µg + oleic acid (as sodium salt) 5 µg
[2] = aculeacin A 0.40 µg + oleic acid (as sodium salt) 10 µg
[3] = aculeacin A 0.40 µg + oleic acid (as sodium salt) 20 µg
[4] = aculeacin A 0.40 µg + oleic acid (as sodium salt) 40 µg
[5] = aculeacin A 0.40 µg + oleic acid (as sodium salt) 78 µg
[6] = aculeacin A 0.40 µg + oleic acid (as sodium salt) 156 µg
[7] = aculeacin A 0.40 µg + oleic acid (as sodium salt) 312 µg
[8] = aculeacin A 0.40 µg + oleic acid (as sodium salt) 625 µg
[9] = aculeacin A 0.40 µg + oleic acid (as sodium salt) 1250 µg

Compound: CCCCCCCC/C=C\CCCCCCCC(=O)O [Oleic Acid]
- reduction in the infection (C. albicans): did not inhibit the infection
- Zone Size B 3153-A (Candida albicans B 3153A; [1]): 13 mm
- Zone Size B 3153-A (Candida albicans B 3153A; [2]): 15 mm
- Zone Size B 3153-A (Candida albicans B 3153A; [3]): 18 mm
- Zone Size B 3153-A (Candida albicans B 3153A; [4]): 17 mm
- Zone Size B 3153-A (Candida albicans B 3153A; [5]): 18 mm
- Zone Size B 3153-A (Candida albicans B 3153A; [6]): 25 mm
- Zone Size B 3153-A (Candida albicans B 3153A; [7]): 25 mm
- Zone Size B 3153-A (Candida albicans B 3153A; [8]): 28 mm
- Zone Size B 3153-A (Candida albicans B 3153A; [9]): 29 mm
- Zone Size BC 759 (Candida albicans BC 759; [1]): 13 mm
- Zone Size BC 759 (Candida albicans BC 759; [2]): 15 mm
- Zone Size BC 759 (Candida albicans BC 759; [3]): 18 mm
- Zone Size BC 759 (Candida albicans BC 759; [4]): 18 mm
- Zone Size BC 759 (Candida albicans BC 759; [5]): 20 mm
- Zone Size BC 759 (Candida albicans BC 759; [6]): 24 mm
- Zone Size BC 759 (Candida albicans BC 759; [7]): 28 mm
- Zone Size BC 759 (Candida albicans BC 759; [8]): 29 mm
- Zone Size BC 759 (Candida albicans BC 759; [9]): 32 mm
- Zone Size (Candida albicans B 311; Table I, YNB agar, glucose as carbon source, composition of 1 unit by weight aculeacin A + 5 units fatty acid): 32 mm
- Zone Size Sabouarud Agar (Candida albicans B 311; Sabouarud dextrose agar, aculeacin A 0 µg, fatty acid 250 µg alone): 0 mm
- Zone Size Sabouarud Agar (Candida albicans B 311; Sabouarud dextrose agar, aculeacin A 0 µg, fatty acid 500 µg alone): 0 mm
- Zone Size Sabouarud Agar (Candida albicans B 311; Sabouarud dextrose agar, aculeacin A 0 µg, fatty acid 1000 µg alone): 0 mm
- Zone Size Sabouarud Agar (Candida albicans B 311; Sabouarud dextrose agar, composition of aculeacin A 1 µg + fatty acid 250 µg): 28 mm
- Zone Size Sabouarud Agar (Candida albicans B 311; Sabouarud dextrose agar, composition of aculeacin A 1 µg + fatty acid 500 µg): 26 mm
- Zone Size Sabouarud Agar (Candida albicans B 311; Sabouarud dextrose agar, composition of aculeacin A 1 µg + fatty acid 1000 µg): 26 mm
- Zone Size YNB agar (Candida albicans B 311; YNB agar, aculeacin A 0 µg, fatty acid 250 µg alone): 0 mm
- Zone Size YNB agar (Candida albicans B 311; YNB agar, aculeacin A 0 µg, fatty acid 500 µg alone): 0 mm
- Zone Size YNB agar (Candida albicans B 311; YNB agar, aculeacin A 0 µg, fatty acid 1000 µg alone): 0 mm
- Zone Size YNB agar (Candida albicans B 311; YNB agar, composition of aculeacin A 1 µg + fatty acid 250 µg): 35 mm
- Zone Size YNB agar (Candida albicans B 311; YNB agar, composition of aculeacin A 1 µg + fatty acid 500 µg): 35 mm
- Zone Size YNB agar (Candida albicans B 311; YNB agar, composition of aculeacin A 1 µg + fatty acid 1000 µg): 35 mm
- Zone Size (Candida albicans B 311; Table III, Sabouarud dextrose agar, aculeacin A 0.000 µg, oleic acid (as sodium salt) 12.5 µg alone): 0 mm
- Zone Size (Candida albicans B 311; Table III, Sabouarud dextrose agar, aculeacin A 0.020 µg + oleic acid (as sodium salt) 12.5 µg): trace
- Zone Size (Candida albicans B 311; Table III, Sabouarud dextrose agar, aculeacin A 0.039 µg + oleic acid (as sodium salt) 12.5 µg): 28 mm
- Zone Size (Candida albicans B 311; Table III, Sabouarud dextrose agar, aculeacin A 0.078 µg + oleic acid (as sodium salt) 12.5 µg): 29 mm
- Zone Size (Candida albicans B 311; Table III, Sabouarud dextrose agar, aculeacin A 0.156 µg + oleic acid (as sodium salt) 12.5 µg): 32 mm
- Zone Size (Candida albicans B 311; Table III, Sabouarud dextrose agar, aculeacin A 0.312 µg + oleic acid (as sodium salt) 12.5 µg): 35 mm
- Zone Size (Candida albicans B 311; Table III, Sabouarud dextrose agar, aculeacin A 0.625 µg + oleic acid (as sodium salt) 12.5 µg): 35 mm
- Zone Size (Candida albicans B 311; Table III, Sabouarud dextrose agar, aculeacin A 1.25 µg + oleic acid (as sodium salt) 12.5 µg): 37 mm
- Zone Size B 311 (Candida albicans B 311; [1]): 13 mm
- Zone Size B 311 (Candida albicans B 311; [2]): 14 mm
- Zone Size B 311 (Candida albicans B 311; [3]): 15 mm
- Zone Size B 311 (Candida albicans B 311; [4]): 17 mm
- Zone Size B 311 (Candida albicans B 311; [5]): 20 mm
- Zone Size B 311 (Candida albicans B 311; [6]): 26 mm
- Zone Size B 311 (Candida albicans B 311; [7]): 30 mm
- Zone Size B 311 (Candida albicans B 311; [8]): 32 mm
- Zone Size B 311 (Candida albicans B 311; [9]): 35 mm
